Measured values taken from patent US4847306A, “Antihypercholesterolemic compounds” (Merck & Co., Inc., priority 1988, dated 1989).

test system: HMG-CoA reductase; assay: HMG-CoA Reductase Inhibition Assay (in vitro, intrinsic inhibitory activity); format: biochemical; details: compactin assigned a value of 100; IC50 of test compound compared with that of compactin determined simultaneously; tested as sodium salt of dihydroxy acid form; solubilized rat liver microsomal enzyme
Method: The intrinsic HMG-CoA reductase inhibition activity of the claimed compounds is measured in the in vitro protocol published in J. Med. Chem., 28, P. 347-358 (1985) and described below:
Isolation of HMG-CoA Reductase. Male Holtzman Sprague-Dawley rate (225-250 g) were kept on reversed lighting and fed Purina rat chow containing 3% cholestyramine for 7 days preceding their sacrifice by CO2 asphyxiation. Livers were removed 6 hours into the dark cycle and used immediately to prepare microsomes. HMG-CoA reductase was solubilized from the freshly prepared microsome by the method of Heller and Shrewsbury [J. Boil Chem., 1976, 251,3815], and purified through the second ammonium sulfate precipitation step as described by Kleinsek et al., [Proc. Natl. Acad. Sci. USA, 1977, 74, 1431]. The enzyme preparation was tested for HMG-CoA reductase potency and diluted with 100 mM phosphate buffer (pH 7.2) so that 100 μL of the enzyme solution, when added to the assay control, gave a value of 50,000-60,000 dpm. The enzyme preparation was stored at -80° C.
HMG-CoA Reductase Inhibition Assay. The assay is essentially the procedure of Shefer et al., [J. Lipid Res., 1972, 13, 402]. The complete assay medium contained the following in a total volume of 0.8 mL: phosphate buffer, pH 7.2, 100 mM; MgCl2, 3 mM; NADP, 3 mM; glucose 6-phospate, 10 mM; glucose-6-phosphate dehydrogenase, 3 enzyme units; reduced glutathione, 50 mM; HMG-CoA (glutaryl-3-^14C, New England Nuclear), 0.2 mM (0.1 μCi); and partially purified enzyme stock solution, 100 μL.
Test compounds or compactin (after first being converted to the sodium salt of their dihydroxy acid form in situ by addition of 1N NaOH (1 equiv)) were added to the assay system in 10-μL volumes at multiconcentration levels. After a 40-minute incubation at 37° C. with shaking and exposure to air, the reaction was stopped by the addition of 0.4 mL of 8N HCl. After an additional 30-minute incubation period at 37° C. to ensure the complete lactonization of mevalonic acid to mevalonolactone, 0.2 mL of the mixture was added to an 0.5×5.0 cm column containing 100-200-mesh Bio-Rex 5, chloride form (Bio-Rad), wetted with distilled water, as described by Alberts et al. [J. Proc. Natl. Acad. Sci. U.S.A., 1980, 77, 3957]. The unreacted [^14 C]HMG-CoA was absorbed on the resin and the [^14 C]mevalonolacetone was eluted with distilled water (2×1 mL) directly into 7-mL scintillation vials. Five milliliters of Aquasol-2 (New England Nuclear) was added to each vial, and radioactivity was measured in a Packard Tri Carb Prias scintillation counter. IC50 values were determined by plotting percentage inhibition against test compound concentration and fitting a straight line to the resulting data by using the least-squares method. For estimation of relative inhibitory potencies, compactin was assigned a value of 100 and the IC50 value of the test compound was compared with that of compactin determined simultaneously.

SMILES | Relative Potency
C[C@H]1C=C2C=C[C@H](C)[C@H](CC[C@@H](O)C[C@@H](O)CC(=O)O)[C@H]2[C@@H](OC(=O)C2(Cc3ccccc3)CCC2)C1 | 156
C[C@H]1C=C2C=C[C@H](C)[C@H](CC[C@@H](O)C[C@@H](O)CC(=O)O)[C@H]2[C@@H](OC(=O)C2(Cc3ccc(O)cc3)CCC2)C1 | 200
CSC1(C(=O)O[C@H]2C[C@@H](C)C=C3C=C[C@H](C)[C@H](CC[C@@H](O)C[C@@H](O)CC(=O)O)[C@H]32)CCC1 | 240
CSC1(C(=O)O[C@H]2C[C@@H](C)C=C3C=C[C@H](C)[C@H](CC[C@@H](O)C[C@@H](O)CC(=O)O)[C@H]32)CCCC1 | 167
C[C@H]1C=C2C=C[C@H](C)[C@H](CC[C@@H](O)C[C@@H](O)CC(=O)O)[C@H]2[C@@H](OC(=O)C2(C)CCC2)C1 | 171
C[C@H]1C=C2C=C[C@H](C)[C@H](CC[C@@H](O)C[C@@H](O)CC(=O)O)[C@H]2[C@@H](OC(=O)C2(C)CCCCC2)C1 | 217
C[C@H]1C=C2C=C[C@H](C)[C@H](CC[C@@H](O)C[C@@H](O)CC(=O)O)[C@H]2[C@@H](OC(=O)C2(CCCO)CCC2)C1 | 100
C[C@H]1C=C2C=C[C@H](C)[C@H](CC[C@@H](O)C[C@@H](O)CC(=O)O)[C@H]2[C@@H](OC(=O)C2(C)CCCC2)C1 | 188
C[C@H]1C=C2C=C[C@H](C)[C@H](CC[C@@H](O)C[C@@H](O)CC(=O)O)[C@H]2[C@@H](OC(=O)C2(C)CC2)C1 | 76
C[C@H]1C=C2C=C[C@H](C)[C@H](CC[C@@H](O)C[C@@H](O)CC(=O)O)[C@H]2[C@@H](OC(=O)C2(CO)CCC2)C1 | 88
